Test results from US20050038110A1, “Selective androgen receptor modulators and methods of use thereof” (priority 2000, published 2005).

What was measured:
[1] = system: androgen-responsive tissues (prostate, seminal vesicles and levator ani muscle) of castrated rats; experiment: Androgenic and anabolic activity in castrated rat model, 14 days of administration; settings: for prostate and seminal vesicle weights / Levator Ani organ weight / Prostate organ weight / Seminal Vesicles organ weight: 14 days; for prostate and seminal vesicle weights: % of that observed in intact animals (FIG. 1); for Levator Ani organ weight / Prostate organ weight / Seminal Vesicles organ weight: mean ± S.D.; for prostate, seminal vesicle and levator ani muscle weights: 14 days (FIG. 3)
[2] = Pharmacokinetic studies (in vivo clearance); settings: comparison among N-1 to N-4
[3] = compared with testosterone propionate (FIG. 3)

Compound: C[C@](O)(COc1ccc(F)cc1)C(=O)Nc1ccc([N+](=O)[O-])c(C(F)(F)F)c1 [Compound 1]
- prostate and seminal vesicle weights ([1]; 0.1-1.0 mg/day): less than 20%

Compound: C[C@](O)(COc1ccc(Cl)cc1)C(=O)Nc1ccc([N+](=O)[O-])c(C(F)(F)F)c1 [Compound 2]
- levator ani muscle weight ([1]; 0.1-1.0 mg/day, 14 days (FIG. 1), versus intact animals): same level as that of intact animals
- prostate and seminal vesicle weights ([1]; 0.1-1.0 mg/day): less than 40%

Compound: C[C@](O)(COc1ccc(Br)cc1)C(=O)Nc1ccc([N+](=O)[O-])c(C(F)(F)F)c1 [Compound 3]
- prostate and seminal vesicle weights ([1]; 0.1-1.0 mg/day): less than 20%

Compound: C[C@](O)(COc1ccc(I)cc1)C(=O)Nc1ccc([N+](=O)[O-])c(C(F)(F)F)c1 [Compound 4]
- prostate and seminal vesicle weights ([1]; 0.1-1.0 mg/day): less than 20%

Compound: C[C@](O)(COc1ccc(F)cc1)C(=O)Nc1ccc(C#N)c(C(F)(F)F)c1 [Compound 5]
- Levator Ani organ weight ([1]; 0.10 mg/day): 54.9 ± 5.77 % of intact
- Prostate organ weight ([1]; 0.10 mg/day): 6.4 ± 0.82 % of intact
- Seminal Vesicles organ weight ([1]; 0.10 mg/day): 8.8 ± 1.18 % of intact
- Levator Ani organ weight ([1]; 0.50 mg/day): 55.0 ± 9.23 % of intact
- Prostate organ weight ([1]; 0.50 mg/day): 6.2 ± 0.56 % of intact
- Seminal Vesicles organ weight ([1]; 0.50 mg/day): 9.3 ± 1.57 % of intact
- Levator Ani organ weight ([1]; 0.75 mg/day): 68.9 ± 8.46 % of intact
- Prostate organ weight ([1]; 0.75 mg/day): 7.6 ± 0.74 % of intact
- Seminal Vesicles organ weight ([1]; 0.75 mg/day): 9.8 ± 3.65 % of intact
- Levator Ani organ weight ([1]; 1.00 mg/day): 75.2±9.51 % of intact
- Prostate organ weight ([1]; 1.00 mg/day): 8.7±1.39 % of intact
- Seminal Vesicles organ weight ([1]; 1.00 mg/day): 10.7±0.91 % of intact

Compound: C[C@](O)(COc1ccc(Cl)cc1)C(=O)Nc1ccc(C#N)c(C(F)(F)F)c1 [Compound 6]
- prostate, seminal vesicle and levator ani muscle weights ([1]; 0.1-1.0 mg/day): dose-dependent increases
- potency and intrinsic activity in increasing the weight of levator ani muscle [1, 3]: greater potency and intrinsic activity
- potency and intrinsic activity in increasing the weights of prostate and seminal vesicle [1, 3]: lower potency and intrinsic activity
- levator ani muscle weight ([1]; dose as low as 0.3 mg/day, versus intact animals (FIG. 3)): same level as that of intact animals

Compound: C[C@](O)(COc1ccc([N+](=O)[O-])cc1)C(=O)Nc1ccc([N+](=O)[O-])c(C(F)(F)F)c1 [Compound N-1]
- weight of the levator ani muscle ([1]; 1 mg/day for 14 days): 105%±13%

Compound: C[C@](O)(COc1ccc(C#N)cc1)C(=O)Nc1ccc([N+](=O)[O-])c(C(F)(F)F)c1 [Compound N-2]
- weight of the levator ani muscle ([1]; 1 mg/day for 14 days): 119%±16%

Compound: C[C@](O)(COc1ccc([N+](=O)[O-])cc1)C(=O)Nc1ccc(C#N)c(C(F)(F)F)c1 [Compound N-3]
- weight of the levator ani muscle ([1]; 1 mg/day for 14 days): 130%±5%

Compound: C[C@](O)(COc1ccc(C#N)cc1)C(=O)Nc1ccc(C#N)c(C(F)(F)F)c1 [Compound N-4]
- weight of the levator ani muscle ([1]; 1 mg/day for 14 days): 142%±17%
- in vivo pharmacologic activity ([1]; 1 mg/day for 14 days, comparison among N-1 to N-4): greatest activity
- in vivo clearance [2]: lowest in vivo clearance

Compound: CCC(=O)O[C@H]1CC[C@H]2[C@@H]3CCC4=CC(=O)CC[C@]4(C)[C@H]3CC[C@]12C [testosterone propionate, reference compound]
- prostate, seminal vesicle and levator ani muscle weights ([1]; 0.1-1.0 mg/day): dose-dependent manner
